Assay results from PMC5618409, “Sequence Analysis, Kinetic Constants, and Anion Inhibition Profile of the Nacrein-Like Protein (CgiNAP2X1) from the Pacific Oyster Magallana gigas (Ex-Crassostrea gigas)” (Marine Drugs, 2017).
pKi: −log10 of the molar value.

What follows are compounds tested against CgiNAP2X1 (Magallana gigas, UniProt A0A8W8INI3) (assay: stopped-flow CO2 hydration assay). Settings: not given.
Assay type: biochemical

Sequence of CgiNAP2X1 (A0A8W8INI3 23-318 limits assumed): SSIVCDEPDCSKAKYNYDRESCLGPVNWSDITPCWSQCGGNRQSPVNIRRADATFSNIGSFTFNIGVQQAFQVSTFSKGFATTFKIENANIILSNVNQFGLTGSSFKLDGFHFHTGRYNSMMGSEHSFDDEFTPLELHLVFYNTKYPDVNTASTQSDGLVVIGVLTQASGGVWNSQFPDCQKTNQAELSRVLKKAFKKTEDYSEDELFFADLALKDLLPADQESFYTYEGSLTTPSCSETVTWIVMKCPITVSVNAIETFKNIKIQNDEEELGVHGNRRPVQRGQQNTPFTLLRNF

Row | Compound | pKi
1 | S [HS^−] | 2.09
2 | [O]=[Sn]([OH])[OH] [SnO3^2−] | 2.46
3 | N#CO [CNO^−] | 2.51
4 | OB(O)c1ccccc1 [phenylboronic acid] | 4.14
5 | N#C[SeH] [SeCN^−] | 2.09
6 | O=NO [NO2^−] | 2.15
7 | Cl [Cl^−] | 1.97
8 | N#CS [SCN^−] | 2.23
9 | O=S(=O)(O)C(F)(F)F [CF3SO3^−] | 2.06
10 | I [I^−] | 2.05

Same assay, conditions: read-out: KIs [mM] ^2 / CgiNAP2X1

Row | Ki [mM] | Compound
11 | 0.076 | NS(N)(=O)=O [sulfamide]
12 | 0.073 | NS(=O)(=O)O [sulfamate]
